Test results reported in the NIST ThermoML archive (doi:10.1021/je700260f).

Conditions: 303.15 K, Liquid, Vibrating tube method

FC(C(F)(F)F)C(F)(F)F [1,1,1,2,3,3,3-heptafluoropropane]
Conditions | mass density [kg/m3]
15975 kPa | 1462
16006 kPa | 1462.4
16038 kPa | 1462.4
16079 kPa | 1462.6
16111 kPa | 1462.8
16152 kPa | 1462.9
16184 kPa | 1463
16220 kPa | 1463.2
16252 kPa | 1463.4
16288 kPa | 1463.6
16325 kPa | 1463.8
16349 kPa | 1463.9
16386 kPa | 1464
16414 kPa | 1464.1
16443 kPa | 1464.3
16485 kPa | 1464.4
16513 kPa | 1464.6
16550 kPa | 1464.7
16577 kPa | 1464.8
16623 kPa | 1465.1
16650 kPa | 1465.1
16678 kPa | 1465.2
16706 kPa | 1465.4
16742 kPa | 1465.5
16775 kPa | 1465.7
16802 kPa | 1465.8
16832 kPa | 1466
16862 kPa | 1466
16887 kPa | 1466.2
16920 kPa | 1466.4
16953 kPa | 1466.4
16978 kPa | 1466.6
17021 kPa | 1466.7
17046 kPa | 1466.9
17084 kPa | 1467
17113 kPa | 1467.2
17142 kPa | 1467.4
17167 kPa | 1467.5
17196 kPa | 1467.5
17235 kPa | 1467.8
17260 kPa | 1467.9
17289 kPa | 1468
17322 kPa | 1468.1
17360 kPa | 1468.3
17393 kPa | 1468.3
17423 kPa | 1468.6
17451 kPa | 1468.7
17484 kPa | 1468.8
17509 kPa | 1468.9
17544 kPa | 1469.1
17577 kPa | 1469.3
17603 kPa | 1469.3
17633 kPa | 1469.4
17662 kPa | 1469.6
17718 kPa | 1469.9
17752 kPa | 1470
17778 kPa | 1470
17808 kPa | 1470.1
17837 kPa | 1470.3
17867 kPa | 1470.6
17892 kPa | 1470.5
17928 kPa | 1470.7
17958 kPa | 1471
17996 kPa | 1471
18026 kPa | 1471.1
18056 kPa | 1471.2
18091 kPa | 1471.3
18125 kPa | 1471.6
18151 kPa | 1471.7
18185 kPa | 1471.7
18211 kPa | 1471.9
18238 kPa | 1472.2
18277 kPa | 1472.1
18303 kPa | 1472.4
18333 kPa | 1472.5
18359 kPa | 1472.6
18389 kPa | 1472.6
18419 kPa | 1472.9
18449 kPa | 1473
18480 kPa | 1472.9
18511 kPa | 1473.3
18545 kPa | 1473.3
18580 kPa | 1473.5
18615 kPa | 1473.7
18646 kPa | 1473.8
18677 kPa | 1473.8
18707 kPa | 1474.1
18737 kPa | 1474.2
18777 kPa | 1474.3
18803 kPa | 1474.4
18835 kPa | 1474.5
18861 kPa | 1474.7
18888 kPa | 1474.9
18913 kPa | 1475
18954 kPa | 1475.1
18980 kPa | 1475.2
19017 kPa | 1475.4
19044 kPa | 1475.5
19075 kPa | 1475.6
19101 kPa | 1475.6
19144 kPa | 1475.8
19166 kPa | 1476
19200 kPa | 1476.1
19235 kPa | 1476.3
19270 kPa | 1476.4
19296 kPa | 1476.6
19327 kPa | 1476.6
19353 kPa | 1476.7
19385 kPa | 1476.8
19420 kPa | 1477
19455 kPa | 1477.2
19490 kPa | 1477.3
19517 kPa | 1477.4
19553 kPa | 1477.5
19592 kPa | 1477.7
19624 kPa | 1477.9
19655 kPa | 1478.1
19691 kPa | 1478.1
19717 kPa | 1478.1
19758 kPa | 1478.3
19785 kPa | 1478.6
19828 kPa | 1478.6
19860 kPa | 1478.8
19891 kPa | 1478.9
19918 kPa | 1479
19949 kPa | 1479.2
19981 kPa | 1479.4
20016 kPa | 1479.4
20044 kPa | 1479.6
20076 kPa | 1479.9
20107 kPa | 1479.9
20152 kPa | 1480
20179 kPa | 1480.1
20216 kPa | 1480.2
20244 kPa | 1480.4
20285 kPa | 1480.6
20325 kPa | 1480.6
20357 kPa | 1480.8
20394 kPa | 1481
20436 kPa | 1481.2
20463 kPa | 1481.3
20491 kPa | 1481.3
20539 kPa | 1481.6
20570 kPa | 1481.7
20597 kPa | 1481.8
20637 kPa | 1481.9
20668 kPa | 1482
20701 kPa | 1482.2
20728 kPa | 1482.4
20769 kPa | 1482.6
20802 kPa | 1482.7
20880 kPa | 1482.9
21049 kPa | 1483.6
21082 kPa | 1483.8
21120 kPa | 1483.8
21152 kPa | 1484.1
21193 kPa | 1484.2
21217 kPa | 1484.4
21250 kPa | 1484.5
21278 kPa | 1484.6
21322 kPa | 1484.7
21360 kPa | 1484.9
21388 kPa | 1485
21421 kPa | 1485.1
21458 kPa | 1485.3
21490 kPa | 1485.4
21523 kPa | 1485.5
21556 kPa | 1485.5
21593 kPa | 1485.8
21626 kPa | 1486
22323 kPa | 1488.6
22447 kPa | 1489.1
22485 kPa | 1489.3
22514 kPa | 1489.4
22548 kPa | 1489.4
22580 kPa | 1489.5
22613 kPa | 1489.9
22643 kPa | 1489.7
22673 kPa | 1490
22707 kPa | 1490.1
22733 kPa | 1490.2
22771 kPa | 1490.3
22801 kPa | 1490.4
22828 kPa | 1490.5
22863 kPa | 1490.7
22899 kPa | 1490.8
22934 kPa | 1490.9
22959 kPa | 1491.1
22997 kPa | 1491.3
23032 kPa | 1491.4
23062 kPa | 1491.6
23102 kPa | 1491.5
23128 kPa | 1491.8
23159 kPa | 1491.7
23186 kPa | 1491.9
23217 kPa | 1492
23249 kPa | 1492.1
23281 kPa | 1492.3
23307 kPa | 1492.3
23342 kPa | 1492.6
23364 kPa | 1492.6
23395 kPa | 1492.8
23431 kPa | 1492.8
23462 kPa | 1492.9
23497 kPa | 1493
